{"source": "paper PMC10356901", "about": "“Mitochondria-derived peptide SHLP2 regulates energy homeostasis through the activation of hypothalamic neurons” (Nature Communications, 2023)", "key": {"[1]": {"system": "POMC neurons expressing hM4Di", "test": "Patch clamp of hM4Di-expressing POMC neurons on CNO application", "type": "cell-based, mouse", "conditions": "for Firing rate / Resting membrane potential (RMP): hM4Di-expressing POMC neurons, CNO", "description": "Slices were moved to a submerged-type recording chamber with continuous perfusion of carbogenated recording aCSF heated to 31 °C at a flow rate of approximately 2 mL/min. Tested compounds were added through bath perfusion. To block synaptic inputs, the aCSF contained 100 nM tetrodotoxin (TTX citrate; Tocris, 1069), 100 μM picrotoxin (Sigma-Aldrich, P8390), 100 μM D(−)-2-Amino-5-phosphonopentanoic acid (D-AP-V; Tocris, 0106) and 20 μM CNQX (CNQX-disodium; Tocris, 1045). To block ERK1/2 activation or PI3K signaling pathway, 10 µM of PD98059 (Tocris, 1213) or 1 µM of wortmannin (Tocris, 1232) was added to the bath solution for at least 30 min before any measurement. To test the effect of CNO on POMC neurons expressing the DREDD hM4Di receptor, 5 μM of CNO were applied for 1 to 2 min.\nPOMC or AgRP-expressing neurons in the ARC were identified with a brief exposure to epifluorescence on an upright microscope (Nikon FN1) using a 40X water-immersion objective and differential interference contrast optics. The pipette solution contains (in mM) 127 K-Methanesulfonate, 5 KCl, 10 HEPES, 0.3 EGTA, 4 Mg-ATP, 0.3 Na-GTP, and is of a pH adjusted to 7.3 with KOH and a 288 mOsm/kg osmolality. The patch pipettes have a resistance of 4-6 MΩ when filled with the pipette solution. […] The basal resting membrane potential and firing rate were recorded for around 3 min after breaking in, and bath perfusion of SHLP2 was applied for 3 to 5 min. Neurons were classified as responsive if there was a change in resting membrane potential of at least 2 mV during the period of drug application. The access resistance (Ra) was monitored throughout the experiment, and cells with a Ra of more than 35 MΩ were excluded from the analysis. Data were acquired at 10 kHz, filtered with a lowpass filter at 5 kHz and analyzed offline with Clampfit 10 (Molecular Devices). The calculated liquid junction potential was +9.55 mV and used to correct all data."}, "CXCR7 [2]": {"system": "CXCR7", "test": "Nanoluc-complementation (NanoBiT) β-Arrestin2 recruitment to CXCR7", "type": "cell-based, human", "conditions": "HEK293T, n = 4 each group", "description": "The recruitment assay was performed based on Nano-luciferase[49]. The vectors (50 ng; gift of Prof. Jong-Ik Hwang, Korea University) encoding human CXCR7, CXCR4, and β-Arrestin2 tagged with SmBiT and LgBiT under Ubiquitin C promoter[49] were transfected into HEK293T cells in a 96-well clear bottom culture plate using Lipofectamine 2000 according to the manufacturer’s protocol. Cells were washed three times with an assay buffer containing (in mM) 140 NaCl, 2.5 KCl, 10 Glucose, 5 HEPES, 2 CaCl2, and 2 MgSO4, pH 7.4 after 24 h. Cells were then incubated with 5 µM Coelenterazine-h (Promega, S201) in the assay buffer for 30 min in the dark, and luminescence was measured at 35 °C in the Victor Nivo Multimode Plate reader (PerkinElmer). The background luminescence was measured for at least 10 min before the addition of ligands, and signals were monitored for at least 60 min after the application of SHLP2 or recombinant mouse CXCL12 (R&D systems, 460-SD-010/CF). The specificity of SHLP2 β-Arrestin2 recruitment through CXCR7 was also confirmed through the assay with CXCR4. Luminescent signals were collected through a 700 nm-IR filter and data were shown as light counts per each cycle of measurement."}, "[3]": {"conditions": "cited from earlier work", "source_text": "One of the first MDPs discovered is Humanin, a 24-amino-acid peptide encoded by the mitochondrial 16S ribosomal RNA (rRNA) gene. It was originally identified in 2001 during a screening for neuroprotective factors against Alzheimer’s disease[6],[7]. […] Another MDP called Mito chondrial Open Reading Frame of the 12S rRNA-c (MOTS-c) is encoded by the mitochondrial 12S rRNA gene[9]. MOTS-c is a mitochondria-originated metabolic hormone which ... || In addition to humanin and MOTS-c, a recent study has identified an additional six small humanin-like peptides (SHLP1 to 6) encoded by the 16S rRNA gene of the mtDNA genome. […] However, the mechanism by which SHLP2 affec ..."}, "[4]": {"test": "Angiotensin II-induced water consumption test (Supplementary Fig. 4a)", "type": "in vivo, mouse", "conditions": "After (angiotensin II); individual animals", "description": "For intracerebroventricular (ICV) cannulation, mice were anesthetized by intraperitoneal injection (IP) of Zoletil (titelamine/zolazepam 30 mg/kg) and Rompun (xylazine 10 mg/kg), then placed onto a stereotaxic apparatus. After setting the ventricular coordinates, a permanent 26-gauge stainless steel cannula (Plastic one, Inc.) was implanted in the third ventricle (1.8 mm caudal to bregma, and 5.0 mm ventral to the sagittal sinus according to the Paxinos and Franklin’s atlas) and secured to the skull surface using a dental acrylic (Vertex). Mice were individually housed and allowed to recover for at least 1 week. The angiotensin II-induced water consumption test was performed to confirm the position of the ICV cannulation. […] Mice with no angiotensin II-induced thirst behavior were excluded from the experiments."}, "adipocytes": {"system": "adipocytes", "conditions": "in vitro; cited from earlier work", "source_text": "In addition to humanin and MOTS-c, a recent study has identified an additional six small humanin-like peptides (SHLP1 to 6) encoded by the 16S rRNA gene of the mtDNA genome. […] However, the mechanism by which SHLP2 affec ..."}, "CXCR7 [5]": {"molecular_target": "T1, CXCR7 (Homo sapiens, UniProt P25106)", "T1 construct": "host or cells: CHO-K1", "T1 sequence (P25106 whole entry)": "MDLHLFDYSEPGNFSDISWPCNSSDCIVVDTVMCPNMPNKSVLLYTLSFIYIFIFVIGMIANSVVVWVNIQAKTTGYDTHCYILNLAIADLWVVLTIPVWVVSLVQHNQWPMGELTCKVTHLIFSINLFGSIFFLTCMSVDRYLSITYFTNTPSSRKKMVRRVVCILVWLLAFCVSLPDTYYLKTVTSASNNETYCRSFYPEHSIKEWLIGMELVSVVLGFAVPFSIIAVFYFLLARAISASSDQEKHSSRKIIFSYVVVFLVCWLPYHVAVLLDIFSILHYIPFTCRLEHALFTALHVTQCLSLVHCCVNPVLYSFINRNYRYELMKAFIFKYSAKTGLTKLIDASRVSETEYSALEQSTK", "T1 sequence (P32121 whole entry partner)": "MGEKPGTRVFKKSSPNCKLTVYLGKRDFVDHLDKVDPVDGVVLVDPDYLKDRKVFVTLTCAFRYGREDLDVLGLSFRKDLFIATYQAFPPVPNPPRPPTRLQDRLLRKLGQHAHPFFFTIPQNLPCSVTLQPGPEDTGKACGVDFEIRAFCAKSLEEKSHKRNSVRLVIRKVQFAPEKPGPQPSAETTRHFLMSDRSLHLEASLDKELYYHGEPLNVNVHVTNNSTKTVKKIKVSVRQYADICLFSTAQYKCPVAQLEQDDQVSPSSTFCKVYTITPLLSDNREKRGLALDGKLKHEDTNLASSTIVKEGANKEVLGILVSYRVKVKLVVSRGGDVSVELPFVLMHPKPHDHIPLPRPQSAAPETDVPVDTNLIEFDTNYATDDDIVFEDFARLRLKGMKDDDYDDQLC", "test": "PathHunter β-Arrestin recruitment to CXCR7, dose response", "type": "cell-based", "conditions": "10-point curve, Hill / four-parameter logistic", "description": "The GPCR profiling was performed using PathHunter GPCRmax Arrestin recruitment assay with 168 known GPCRs provided by DiscoverX (Eurofins). This assay utilized Chinese Hamster Ovary CHO-K1 cells expressing GPCR tagged with ProLink (PK) and β-Arrestin2 tagged with a deletion mutant of β-galactosidase as an enzyme acceptor. Upon the binding of the ligand to the GPCR, the recruitment of tagged β-Arrestin2 to the GPCR causes the complementation of a functional β-galactosidase, hydrolyzing a chemiluminescence substrate. The assay was performed with known ligands in agonist and antagonist modes, with data presented as: %Activityagonist=100%×MeanRLUSHLP2−MeanRLU(vehiclecontrol)/MeanMAXRLUcontrolligand−MeanRLU(vehiclecontrol) and %Activityantagonist=100%×1−MeanRLUSHLP2−MeanRLU(vehiclecontrol)/MeanMAXRLUcontrolligand−MeanRLU(vehiclecontrol)\nThe dose response (EC50) was built using a 10-point curve and fit to a Hill Equation."}, "[6]": {"test": "Dot blot for SHLP2 in CSF after IP injection", "type": "in vivo, mouse", "description": "The immuno-dot blot assay was performed by using the human and mice serum or mouse CSF. 0.2 μm nitrocellulose membranes were activated with ultrapure water (Invitrogen, 10977015), and 2 μL of samples were spotted on a membrane and dried for 30 mins at RT. The membrane was blocked in 5% BSA prepared in 1X Tris Buffered Saline-0.1% Tween 20 (TBST) for 1 h before being overnight incubated with anti-SHLP2 at 4 °C. Membranes were washed 3 times with 1X TBST, then incubated with anti-rabbit IgG (Invitrogen, 31460, 1:3000). The membranes were washed and visualized using the ImageQuant™ LAS 4000 (GE Healthcare Life Science). Blot densitometry was measured using ImageJ software (NIH Image). To quantitate the immuno-dot blot assay results, we prepared controls (total protein level stained by amido black), and subsequently established a calibration figure for each run of the assay."}, "[7]": {"molecular_target": "CXCR7 tagged with ProLink (PathHunter CHO-K1 cell line) (UniProt P25106)", "sequence (P25106 whole entry)": "as the sequence (P25106 whole entry) above"}}, "note": "pEC50: −log10 of the molar value. “And” between values parts separate entries of the source, which are not always exact repeats. Equal entries are not always repeated. Where no end group is shown, it is not given here."}
{"compound": "C[N+]1([O-])CCN(C2=Nc3cc(Cl)ccc3Nc3ccccc32)CC1", "note": "[CNO, Clozapine-N-oxide]", "values": [{"measurement": "effect on POMC neurons expressing hM4Di", "setting": "[1]; 5 μM CNO, 1 to 2 min, n = 6 from 2 animals", "value": "induced hyperpolarization of POMC neurons expressing hM4Di"}, {"measurement": "resting membrane potential and firing rate of POMC neurons expressing hM4Di", "setting": "[1]; 5 μM CNO, n = 6 from 2 animals", "value": "decreases in the resting membrane potentials (h) and firing rates (i)"}, {"measurement": "Firing rate", "setting": "[1]; replicate 1 of 6", "value": 0.3384}, {"measurement": "Resting membrane potential (RMP)", "setting": "[1]; replicate 1 of 6", "value": -60.0566}, {"measurement": "Firing rate", "setting": "[1]; replicate 2 of 6", "value": 0}, {"measurement": "Resting membrane potential (RMP)", "setting": "[1]; replicate 2 of 6", "value": -63.8078}, {"measurement": "Firing rate", "setting": "[1]; replicate 3 of 6", "value": 0.1759}, {"measurement": "Resting membrane potential (RMP)", "setting": "[1]; replicate 3 of 6", "value": -77.9333}, {"measurement": "Firing rate", "setting": "[1]; replicate 4 of 6", "value": 0.2189}, {"measurement": "Resting membrane potential (RMP)", "setting": "[1]; replicate 4 of 6", "value": -57.1355}, {"measurement": "Firing rate", "setting": "[1]; replicate 5 of 6", "value": 0.1654}, {"measurement": "Resting membrane potential (RMP)", "setting": "[1]; replicate 5 of 6", "value": -59.3185}, {"measurement": "Firing rate", "setting": "[1]; replicate 6 of 6", "value": 0.2879}, {"measurement": "Resting membrane potential (RMP)", "setting": "[1]; replicate 6 of 6", "value": -55.5068}]}
{"compound": "Small humanin-like peptide 5 [SHLP5]", "values": [{"measurement": "CXCR7 activation (β-Arrestin2 recruitment) by SHLP1 to 6", "setting": "CXCR7 [2]", "value": "but not by SHLP1, 3, 4, 5, or 6"}]}
{"compound": "humanin: 24-amino-acid peptide encoded by the mitochondrial 16S ribosomal RNA gene (MAPRGFSCLLLLTSEIDLPVKRRA; UniProt Q8IVG9 1-24, looked up)", "values": [{"measurement": "lifespan", "setting": "[3]", "value": "promote lifespan"}]}
{"compound": "Mito chondrial Open Reading Frame of the 12S rRNA-c (MRWQEMGYIFYPRKLR; UniProt A0A0C5B5G6 1-16, looked up) [MOTS-c, mitochondrial-derived peptide encoded by the mitochondrial 12S rRNA gene]", "values": [{"measurement": "lifespan", "setting": "[3]", "value": "promote lifespan"}]}
{"compound": "Small humanin-like peptide 6 [SHLP6]", "values": [{"measurement": "CXCR7 activation (β-Arrestin2 recruitment) by SHLP1 to 6", "setting": "CXCR7 [2]", "value": "but not by SHLP1, 3, 4, 5, or 6"}]}
{"compound": "angiotensin II (DRVYIHPF; Angiotensin-2; UniProt P01019 25-32, looked up) [used in the water consumption test to confirm ICV cannula position]", "values": [{"measurement": "Fig. S4a water intake", "setting": "[4]", "value": "0.37 g and 0.63 g and 0.3 g and 0.21 g"}]}
{"compound": "Small humanin-like peptide 3 [SHLP3]", "values": [{"measurement": "CXCR7 activation (β-Arrestin2 recruitment) by SHLP1 to 6", "setting": "CXCR7 [2]", "value": "but not by SHLP1, 3, 4, 5, or 6"}, {"measurement": "cellular differentiation and insulin sensitivity in adipocytes", "setting": "adipocytes", "value": "enhance cellular differentiation and insulin sensitivity in adipocytes in vitro"}]}
{"compound": "MGVKFFTLSTRFFPSVQRAVPLWTNS [SHLP2, Small humanin-like peptide 2]", "values": [{"measurement": "pEC50", "setting": "CXCR7 [5]", "value": 6.01}, {"measurement": "SHLP2 in CSF, relative dot blot densitometry", "setting": "[6]; IP injection, individual animals (n = 3)", "value": "3.163 and 4.493 and 3.525"}, {"measurement": "SHLP2 detection in CSF", "setting": "[6]; systemic (IP) injection", "value": "highly detected in the CSF"}]}
{"compound": "Small humanin-like peptide 2 (SHLP2), biotinylated", "values": [{"measurement": "PathHunter β-Arrestin recruitment to CXCR7 (screen of 168 GPCRs, agonist mode): relative agonistic activity of SHLP2 as percent of the known ligand SDF1α/CXCL12 (% of the known ligand SDF1α/CXCL12)", "setting": "[7]", "value": 70}, {"measurement": "PathHunter β-Arrestin recruitment to CXCR7, dose response to SHLP2 (10-point curve): EC50", "setting": "[7]", "value": 0.97, "unit": "µM"}]}
{"compound": "Small humanin-like peptide 4 [SHLP4]", "values": [{"measurement": "CXCR7 activation (β-Arrestin2 recruitment) by SHLP1 to 6", "setting": "CXCR7 [2]", "value": "but not by SHLP1, 3, 4, 5, or 6"}]}
{"compound": "Small humanin-like peptide 1 [SHLP1]", "values": [{"measurement": "CXCR7 activation (β-Arrestin2 recruitment) by SHLP1 to 6", "setting": "CXCR7 [2]", "value": "but not by SHLP1, 3, 4, 5, or 6"}]}
